The test addresses Delta-type opioid receptor (Homo sapiens) (UniProt P41143). The test is described as follows: OPRD1 luminescent activation counter-screen – cell-based, luminescence, dose response, set 2, counter-screen for OPRM1-OPRD1 heterodimer activator project, late-stage follow-up (AID 651764). The following applies: OPRD1 cell-based luminescence activation counterscreen.

Molecules are shown by their SMILES. pEC50: −log10 of the molar value. Calls of active or inactive are those of the source. No rule for the calls is given here.

Chain of Delta-type opioid receptor (Homo sapiens) (P41143 whole entry, looked up): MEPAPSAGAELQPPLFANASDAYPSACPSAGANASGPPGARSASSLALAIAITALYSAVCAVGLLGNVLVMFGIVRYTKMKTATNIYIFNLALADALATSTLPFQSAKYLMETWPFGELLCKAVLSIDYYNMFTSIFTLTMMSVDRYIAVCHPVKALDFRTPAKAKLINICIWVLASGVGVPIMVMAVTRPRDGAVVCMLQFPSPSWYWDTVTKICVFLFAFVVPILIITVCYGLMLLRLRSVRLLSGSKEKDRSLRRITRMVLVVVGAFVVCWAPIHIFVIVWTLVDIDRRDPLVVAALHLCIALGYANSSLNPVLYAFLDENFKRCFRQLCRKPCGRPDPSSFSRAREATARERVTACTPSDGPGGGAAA

In general, EC50 refers to the concentration giving half of the maximal effect. On to `CCOC(=O)C1(CCc2ccccc2)CCN(Cc2ccc(C#CC(C)(C)O)cc2)CC1`, for which the EC50 is > 50 µM (inactive). Turning to `CCOC(=O)C1CCN(C(=O)c2ccc(N(C)C)cc2)CC1`, the EC50 was > 50 µM (inactive). Same read-out and setting: the same measure for `CCOC(=O)C1(CCOC)CCN(Cc2ccc(NC(C)=O)cc2)CC1`: > 50 µM (inactive); for `O=C(O)C1CCCCC1C(=O)Nc1ccc(CN2CCCCC2)cc1` (stereo not drawn): > 50 µM (inactive).

As for `CCOC(=O)C1(Cc2ccccc2C)CCCN(Cc2ccc(NC(C)=O)cc2)C1` (stereo not drawn), the EC50 was > 50 µM (inactive). Still for that read-out and setting: under `CCOC(=O)C1(CCOC)CCCN(Cc2ccc(NC(C)=O)cc2)C1` (stereo not drawn) stands > 50 µM (inactive). The same measure, in the same setting: the same measure for `CCOC(=O)C1CCN(Cc2ccc(NC(C)=O)cc2)CC1`: > 50 µM (inactive); for `CCOC(=O)C1(CC2CC2)CCN(Cc2ccc(NC(C)=O)cc2)CC1`: > 50 µM (inactive).

For the molecule `CCOC(=O)C1(CCc2ccccc2)CCN(Cc2c(O)cccc2OC)CC1`, the EC50 is > 50 µM (inactive). Same read-out and setting: under `CCOC(=O)C1(Cc2cccc(OC)c2)CCCN(Cc2ccc(NC(C)=O)cc2)C1` (stereo not drawn) stands > 50 µM (inactive). With `CCOC(=O)C1(CCc2ccccc2)CCN(Cc2ccncc2)CC1`, the EC50 was > 50 µM (inactive). On the same count and under the same terms, the same measure for `CCOC(=O)C1(CCc2ccccc2)CCN(Cc2ccc(OC)cc2)CC1`: > 50 µM (inactive). On the same count and under the same terms, the same measure for `CC(=O)Nc1ccc(CN2CCCC(CO)(CCc3ccccc3)C2)cc1` (stereo not drawn): > 50 µM (inactive); for `CCOC(=O)C1(Cc2ccc(OC)cc2)CCN(C(=O)c2ccc(N(C)C)cc2)CC1`: > 50 µM (inactive). The same measure, in the same setting: the same measure for `CCOC(=O)C1(CCc2ccccc2)CCN(C(=O)Nc2ccc(C)cc2C)CC1`: > 50 µM (inactive). With `CCOC(=O)C1(CC2CC2)CCN(C(=O)c2ccc(N3CCCCC3)cc2)CC1`, the EC50 is > 50 µM (inactive). As to `CCOC(=O)C1(CCc2ccccc2)CCN(Cc2ccc(C(=O)OC)cc2)CC1`, the EC50 is > 50 µM (inactive). By pEC50 is commonly meant −log10 of the EC50, conventionally taken in molar units. On to `CCOC(=O)C1(Cc2ccccc2Cl)CCN(Cc2ccc(NC(C)=O)cc2)CC1`, for which the pEC50 was 6.49. On to `CCOC(=O)C1(CCc2ccccc2)CCCN(Cc2ccc(N3CCNC3=O)cc2)C1` (stereo not drawn), for which the EC50 was > 50 µM (inactive). Still for that read-out and setting: under `CCOC(=O)C1(CCOC)CCN(Cc2ccc(N(C)c3ccccc3)cc2)CC1` stands > 50 µM (inactive).

With `CCOC(=O)C1(CCc2ccccc2)CCN(Cc2ccc(O)cc2)CC1`, the EC50 was > 50 µM (inactive). Still for that read-out and setting: under `CCOC(=O)C1CCCCN1Cc1ccc(NC(C)=O)cc1` (stereo not drawn) stands > 50 µM (inactive); under `C=Cc1ccc(C(=O)N2CCC(CCc3ccccc3)(C(=O)OCC)CC2)cc1`, > 50 µM (inactive). On the same count and under the same terms, the same measure for `CCOC(=O)C1CCN(Cc2ccc(N(C)C)cc2)CC1`: > 50 µM (inactive). Same read-out and setting: the same measure for `C=Cc1ccc(C(=O)N2CCC(CCCc3ccccc3)(C(=O)OCC)CC2)cc1`: > 50 µM (inactive); for `CCOC(=O)C1(Cc2ccccc2)CCCN(Cc2ccc(NC(C)=O)cc2)C1` (stereo not drawn): > 50 µM (inactive). `CCOC(=O)C1CCN(CCC(=O)Nc2ccc(C)cc2)CC1`: the EC50 was > 50 µM (inactive).

On to `CCOC(=O)C1(CCOc2ccccc2)CCCN(Cc2ccc(NC(C)=O)cc2)C1` (stereo not drawn), for which the EC50 was > 50 µM (inactive).

The values above are taken from PubChem BioAssay AID651764 (The Scripps Research Institute Molecular Screening Center, 2012).
